Laboratory results published in patent publication US20230018989A1, “INHIBITING THE RNA […] METTL3 OR ITS INTERACTION WITH EIF3H TO […] ONCOGENE TRANSLATION AND TUMORIGENESIS” (Children's Medical Center Corporation, priority 2019, published 2023).

Columns and labels:
[1] = biological target: eIF3h (endogenous, in cells) (human) (UniProt O15372); experiment: cell-based or functional assay
A549 cells [2] = experiment: Annexin V/PI apoptosis assay (FACS) upon JQ1 treatment; type: cell-based, human; conditions: 500 nM JQ1, five days; METTL3 depleted A549 cells compared with control A549 cells
Procedure: (§1) FIGS. 7A-7N. METTL3 promotes translation of a large subset of mRNAs. (FIGS. 7A-7E) Global profiling of METTL3 target genes in HeLa. Cytoplasmic extracts from control or METTL3 depleted cells were subjected to sucrose gradient centrifugation. Total RNA, RNA from sub-polysome fractions and RNA from polysome fractions were analyzed by RNA-seq. (FIG. 7A) Peak analysis of polysome profiling. (FIG. 7B) Scatter plot of RNA-Seq data in METTL3 knockdown (shMETTL3) and control (shGFP) HeLa cells. Average read number from two individual METTL3 knockdown is plotted on the y-axis. (FIG. 7C) Scatter plot of RNA-Seq data in shMETTL3 and shGFP HeLa cells. Average read number from two shMETTL3 samples were calculated by the ratio of polysome fraction to the read number in the sub-polysome fraction and plotted on the y-axis. (FIG. 7D) Venn diagram showing the overlap of 2-fold less translated genes and METTL3 PAR-CLIP data. […] (FIG. 7N) Quantification of apoptotic cells, numbers represent ratio between death cells in JQ1 and DMSO treatments. […]
FIGS. 9A-9E. […] (FIG. 9B) Density plot reflects the distribution of changes in percent spliced In (APSI) values and according p-values for alternative splicing events detected by rMATs v3.2.5. […] (FIG. 9E) Annexin V/PI staining of METTL3 knockdown and control A549 cells upon JQ1 treatment that was analyzed by FACS. […]

A549 cells [3] = experiment: MTS cell proliferation assay upon JQ1 treatment; type: cell-based, human; conditions: 500 nM JQ1; METTL3 depleted A549 cells compared with control A549 cells
Procedure: as §1, with “y-axis.” for “y-axis. (FIG. 7D) Venn diagram showing the overlap of 2-fold less translated genes and METTL3 PAR-CLIP data.”
Cell proliferation and apoptosis assays were performed as described previously^8. […] Absorbances at 490 nm were measured using CellTiter 96 AQueous One Solution Cell Proliferation Assay kit (Promega) on day 2, day 4, and day 6 to measure the cellular proliferation. The numbers of apoptotic cells were quantified by flow cytometric assays using Annexin V-FITC Apoptosis Detection Kit (BioVision) five days after 500 nM of JQ1 treatment and cell seeding.

Sequence of UniProt O15372 (O15372 whole entry): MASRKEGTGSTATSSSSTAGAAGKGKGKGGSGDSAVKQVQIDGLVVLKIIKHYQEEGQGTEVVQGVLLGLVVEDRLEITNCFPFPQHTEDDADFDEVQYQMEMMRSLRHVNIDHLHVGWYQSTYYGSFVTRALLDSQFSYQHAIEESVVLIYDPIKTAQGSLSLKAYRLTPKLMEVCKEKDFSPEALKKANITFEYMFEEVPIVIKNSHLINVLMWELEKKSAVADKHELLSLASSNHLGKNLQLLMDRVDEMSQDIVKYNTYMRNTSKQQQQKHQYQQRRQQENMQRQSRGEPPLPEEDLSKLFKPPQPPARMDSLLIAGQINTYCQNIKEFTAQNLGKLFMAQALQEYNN

With “FLAG-MS2-METTL3 (from UniProt Q86U44 1-580)” the translation efficiency of reporter mRNA (tethering assay, FLuc-MS2bs, with control siRNA or eIF3h knockdown) [1] was 2 fold.
In the case of `Cc1sc2c(c1C)C(c1ccc(Cl)cc1)=N[C@@H](CC(=O)OC(C)(C)C)c1nnc(C)n1-2` [JQ1], the “number of apoptotic cells, JQ1 versus DMSO” value (A549 cells [2]) was “increased the number of apoptotic cells” and the “cellular proliferation (OD490), JQ1 versus DMSO” value (A549 cells [3]) was “stronger proliferation defect”.
